# Measured values: patent US11459336B2, “Pyrazine carbamates and their use as GluN2B receptor modulators” (JANSSEN PHARMACEUTICA NV, priority 2019, dated 2022)
# Key:
# [1] = Liver microsomal stability assay (extraction ratio); assay type: in vitro ADME; conditions: test compound 1 μM; 0.5 mg/mL liver microsomes, 1 mM NADPH, 37° C.; species not given (method: mouse, rat, and human)
# Procedure: Microsomal stability studies (see, Chrovian et al, “1H-Pyrrolo[3,2-b]pyridine GluN2B-Selective Negative Allosteric Modulators”. ACS Med Chem Lett. 2019 Jan. 10; 10(3):261-266) were conducted on a Biomek® FX Robotic Liquid Handling Workstation (Beckman Coulter, Brea, Calif.), which consists of a 96-channel pipette head, a 12-position workstation deck, and a plate incubator. Test compounds (1 μM) were spiked in a reaction mix consisting of 100 mM potassium phosphate buffer (pH 7.4), 3 mM MgCl2, and 0.5 mg/mL liver microsomes from mouse, rat, and human (BD Gentest). The reaction was brought to 37° C. and initiated by adding NADPH to a final concentration of 1 mM. After mixing on the platedeck, 50 μL aliquots were excised from the reaction plate at 0, 5, 10, 20, 40, and 60 min and quenched with four volumes of acetonitrile spiked with […] of the internal standard phenytoin. Quenched plates were centrifuged at 5700 rpm for 10 min at 4° C., and supernatant was diluted 1:3 in water before LC/MS/MS analysis. The compound half-lives were derived from plots of the ln of percent remaining compound over time to determine the intrinsic clearance. The predicted hepatic clearance was derived from the intrinsic clearance value using equations from the well-stirred model (Current Drug Metabolism, 2008, 9, 940-951), where no correction was made plasma protein binding and the blood to plasma concentration ratio was assumed to be one. The extraction ratio (ER) was calculated by dividing the predicted hepatic clearance by species blood flow (Q), where Q is 90, 55, and 21.7 mL/min/kg for mouse, rat and human, respectively.
# [2] = molecular target: T1, human GluN1/GluN2B NMDA receptors (Homo sapiens, UniProt Q05586+Q13224); assay: Calcium flux (FLIPR) assay on cloned human GluN1/GluN2B ion channels expressed in mammalian cells, standard assay; assay type: cell-based; conditions: glutamate ~EC40, 10 μM glycine, stable cell line with Tet-On induced expression
# T1 construct: expressed in transfected cells
# Procedure: (§1) NMDA receptors are ion channels that are highly permeable to Ca^2+ ions, rendering it possible to monitor NMDA receptor function using cell-based calcium flux assay. In this assay, co-agonists glutamate and glycine are added to cells heterologously expressing human GluN1/GluN2B NMDA receptors to initiate cellular Ca^2+ influx. The time course of the changes in intracellular calcium is measured using a fluorescent dye and a FLIPR (Fluorometric Imaging Plate Reader) device.
# (§2) Twenty four hours before measurements, the expression of the NMDA receptors in the stable cell line is induced with Tet-On inducible system in the presence of a non-selective NMDA receptor blocker. On the day of the experiment, cell culture media is carefully washed and the cells are loaded with Calcium 5 Dye Kit (Molecular Devices) in dye loading buffer containing 137 mM NaCl, 4 mM KCl, 2 mM CaCl2, 0.5 mM MgCl2 (standard assay) or 1.5 mM MgCl2 (HTS assay), 10 mM HEPES and 5 mM D-glucose; pH 7.4. After 1 h incubation at the room temperature, the dye is washed away with the assay buffer (137 mM NaCl (standard assay) or 150 mM (HTS assay), 4 mM KCl (standard assay) or 3 mM (HTS assay), 2 mM CaCl2, 0.01 mM EDTA, 10 mM HEPES and 5 mM D-glucose; pH 7.4) In the FLIPR TETRA reader, various concentrations of the test compounds are added to the cells for 5 min while fluorescence is monitored to detect potential agonist activity. Next, co-agonists, glutamate and glycine are added for another 5 minutes. The concentration of glutamate corresponding to ˜EC40 (standard assay) or EC40 (HTS assay) is used to maximize the assay's signal window and ability to detect NMDA receptor antagonists and negative allosteric modulators. A saturating concentration (10 μM) of glycine is also present in the assay. A non-selective NMDA receptor antagonist, (+)MK-801 is used as a positive control for antagonist activity. The fluorescent signal in the presence of test compounds is quantified and normalized to the signal defined by the appropriate control wells.
# [3] = molecular target: T2, human GluN1/GluN2B NMDA receptors (Homo sapiens, UniProt Q13224); assay: as above; assay type: cell-based; conditions: glutamate ~EC40, 10 μM glycine, stable cell line with Tet-On induced expression
# T2 construct: expressed in transfected cells
# Procedure: as §1, §2
# T1 sequence (Q13224 27-1484, other chains not shown): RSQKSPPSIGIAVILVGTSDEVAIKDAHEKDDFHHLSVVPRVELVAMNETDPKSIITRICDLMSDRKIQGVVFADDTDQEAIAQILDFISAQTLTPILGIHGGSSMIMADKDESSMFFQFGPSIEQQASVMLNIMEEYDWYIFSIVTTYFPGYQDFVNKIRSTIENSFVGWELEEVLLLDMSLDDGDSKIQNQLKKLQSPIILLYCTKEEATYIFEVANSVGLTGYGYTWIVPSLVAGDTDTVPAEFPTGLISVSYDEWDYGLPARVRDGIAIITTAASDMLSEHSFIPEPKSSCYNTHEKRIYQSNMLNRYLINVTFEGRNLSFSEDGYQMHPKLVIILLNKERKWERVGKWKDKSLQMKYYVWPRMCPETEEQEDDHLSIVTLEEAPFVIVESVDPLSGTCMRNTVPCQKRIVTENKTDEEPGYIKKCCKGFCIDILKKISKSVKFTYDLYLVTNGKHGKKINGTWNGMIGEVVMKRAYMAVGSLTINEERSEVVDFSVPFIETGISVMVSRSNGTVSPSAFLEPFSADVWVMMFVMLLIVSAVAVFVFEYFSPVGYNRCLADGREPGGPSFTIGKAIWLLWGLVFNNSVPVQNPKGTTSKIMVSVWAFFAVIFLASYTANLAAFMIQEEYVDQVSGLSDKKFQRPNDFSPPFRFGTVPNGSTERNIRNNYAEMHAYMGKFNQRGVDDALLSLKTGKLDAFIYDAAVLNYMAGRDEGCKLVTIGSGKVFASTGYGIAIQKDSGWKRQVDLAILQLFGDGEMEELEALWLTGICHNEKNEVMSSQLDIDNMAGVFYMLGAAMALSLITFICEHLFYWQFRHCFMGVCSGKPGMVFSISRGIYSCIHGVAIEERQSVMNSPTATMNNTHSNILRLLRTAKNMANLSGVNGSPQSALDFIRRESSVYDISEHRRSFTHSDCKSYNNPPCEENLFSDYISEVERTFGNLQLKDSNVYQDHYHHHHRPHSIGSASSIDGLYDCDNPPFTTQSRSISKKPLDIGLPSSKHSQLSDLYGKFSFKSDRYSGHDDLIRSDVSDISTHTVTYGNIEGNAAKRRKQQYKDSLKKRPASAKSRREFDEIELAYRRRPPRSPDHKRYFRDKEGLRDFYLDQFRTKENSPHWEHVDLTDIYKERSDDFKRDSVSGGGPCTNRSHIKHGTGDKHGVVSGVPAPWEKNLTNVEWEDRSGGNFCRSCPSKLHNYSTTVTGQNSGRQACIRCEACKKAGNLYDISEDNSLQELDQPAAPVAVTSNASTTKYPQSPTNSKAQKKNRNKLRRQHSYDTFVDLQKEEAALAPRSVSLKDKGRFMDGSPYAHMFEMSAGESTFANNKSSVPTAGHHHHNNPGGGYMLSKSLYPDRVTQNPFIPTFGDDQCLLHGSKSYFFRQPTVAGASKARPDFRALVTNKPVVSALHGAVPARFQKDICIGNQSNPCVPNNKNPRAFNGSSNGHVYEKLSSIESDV
# T2 sequence (Q13224 27-1484, other chains not shown): as above
Extraction Ratio @ 1 μM [1],IC50 [2],IC50 [3],Compound
,> 3000 nM,,"CNC(=O)C1CN(Cc2cncc(-c3ccc(F)c(C(C)(F)F)c3)n2)C(=O)O1 (racemic) [Example 63, (R/S)-3-[[6-[3-(1,1-Difluoroethyl)-4-fluoro-phenyl]pyrazin-2-yl]methyl]-N-methyl-2-oxo-oxazolidine-5-carboxamide]"
,> 3000 nM,,"CC(F)(F)c1cc(-c2cncc(CN3CC(C(=O)N4CCC4)OC3=O)n2)ccc1F (racemic) [Example 64, (R/S)-5-(Azetidine-1-carbonyl)-3-[[6-[3-(1,1-difluoroethyl)-4-fluoro-phenyl]pyrazin-2-yl]methyl]oxazolidin-2-one]"
,> 3000 nM,,"CN(C)C(=O)C1CN(Cc2cncc(-c3ccc(F)c(C(F)F)c3)n2)C(=O)O1 (racemic) [Example 65, (R/S)-3-[[6-[3-(Difluoromethyl)-4-fluoro-phenyl]pyrazin-2-yl]methyl]-N,N-dimethyl-2-oxo-oxazolidine-5-carboxamide]"
,141 nM,,"CN(C)C(=O)C1CN(Cc2cncc(-c3ccc(F)c(OC(F)F)c3)n2)C(=O)O1 (racemic) [Example 66, (R/S)-3-[[6-[3-(Difluoromethoxy)-4-fluoro-phenyl]pyrazin-2-yl]methyl]-N,N-dimethyl-2-oxo-oxazolidine-5-carboxamide]"

# The next lines start with the compound.
Compound,Extraction Ratio @ 1 μM [1],IC50 [2],IC50 [3]
"CNC(=O)C1CN(Cc2cncc(-c3ccc(F)c(C(F)F)c3)n2)C(=O)O1 (racemic) [Example 59, (R/S)-3-[[6-[3-(Difluoromethyl)-4-fluoro-phenyl]pyrazin-2-yl]methyl]-N-methyl-2-oxo-oxazolidine-5-carboxamide]",0.18,> 3000 nM,
"O=C1OC(C(=O)N2CCC2)CN1Cc1cncc(-c2ccc(F)c(OC(F)F)c2)n1 (racemic) [Example 61, (R/S)-5-(Azetidine-1-carbonyl)-3-[[6-[3-(difluoromethoxy)-4-fluoro-phenyl]pyrazin-2-yl]methyl]oxazolidin-2-one]",,5740 nM,
"CN(C)C(=O)C1CN(Cc2cncc(-c3ccc(F)c(C(C)(F)F)c3)n2)C(=O)O1 (racemic) [Example 62, (R/S)-3-[[6-[3-(1,1-Difluoroethyl)-4-fluoro-phenyl]pyrazin-2-yl]methyl]-N,N-dimethyl-2-oxo-oxazolidine-5-carboxamide]",,3680 nM,
"O=C1OC2(CC2)CN1Cc1cncc(-c2ccc(F)c(C(F)F)c2)n1 [Example 3, 5-[[6-[3-(Difluoromethyl)-4-fluoro-phenyl]pyrazin-2-yl]methyl]-7-oxa-5-azaspiro[2.4]heptan-6-one]",0.05,,13 nM
"C[C@H]1COC(=O)N1Cc1cncc(-c2ccc(F)c(C(F)F)c2)n1 [Example 8, (4S)-3-[[6-[3-(Difluoromethyl)-4-fluoro-phenyl]pyrazin-2-yl]methyl]-4-methyl-oxazolidin-2-one]",0.06,,872 nM
"Cc1ncc(-c2ccc(F)c(C(F)F)c2)nc1CN1C(=O)OC[C@H]1C [Example 11, (4R)-3-[[6-[3-(Difluoromethyl)-4-fluoro-phenyl]-3-methyl-pyrazin-2-yl]methyl]-4-methyl-oxazolidin-2-one]",0.18,,192 nM
"Cc1ncc(-c2ccc(F)c(C(F)F)c2)nc1CN1CCCOC1=O [Example 15, 3-[[6-[3-(Difluoromethyl)-4-fluoro-phenyl]-3-methyl-pyrazin-2-yl]methyl]-1,3-oxazinan-2-one]",0.06,,65 nM
